How the values were obtained:
NCI-H1975 cells [1] = assay: Immunoblot of EGFR, HER2 and receptor tyrosine kinases, NCI-H1975 cells; assay type: cell-based, human
Description: Data are means ± SEM, n = 8. d, EGFR and its signaling proteins in xenograft tumors from NCI-H1975 inoculated mice were detected by IB. e, Stem cell markers in xenograft tumors from NCI-H1975 inoculated mice mice were detected by IB. f, Expressions of TRIB3 and EGFR were detected by IB in tumor samples from PDX mice. g, NCI-H1975 cells were treated with 5 µM of the indicated peptides or 0.5 µM AZD9291for 24 hr. The expression of indicated proteins was detected with IB. h, NCI-H1975 cells were treated with 5 µM of the indicated peptides for 24 hr. The expression of several receptor tyrosine kinases was detected with IB. i, NCI-H1975 cells were pretreated with 5 µM of the indicated peptides for 12 hr. The cells were then incubated with CHX (10 µg ml-1) for indicated times. The indicated proteins were detected by IB. Data are means ± SEM of 3 independent assays. Data in d-h are representatives of 3 independent assays. Statistical significance between two groups was determined by two-tailed Student’s t-test; Statistical significance among groups was determined by one-way ANOVA test. Source data are provided as a Source Data ﬁle.
Immunoblotting, Immunostaining and Immunohistochemistry
Proteins were extracted from cells and tissues using a RIPA lysis buffer (Applygen
Technologies Inc. Beijing, China). Equal protein amounts were loaded for SDS-PAGE,
followed by transfer to polyvinylidene difluoride membranes, and subjected to immunoblot
analysis. Signals were detected by Tanon 5200 chemiluminescent imaging system (Tanon,
Shanghai, China). The western blots were scanning densitometry using Gel Pro Analyzer 3.2
and calculated relative to GAPDH. If not specifically indicated, the data was presented as means
± SEMs of 3 independent biological experiments.

[2] = test system: EGFR signaling proteins in xenograft tumors; assay: Immunoblot / CO-IP of xenograft tumor tissue; assay type: in vivo; conditions: NCI-H1975 inoculated mice, long-term treatment
Description: Data in a–d are presented as means ± SEM, n = 8. e The EGFR–TRIB3 or EGFR–PKCα interaction in xenograft tumors from indicated mice were detected with CO-IP assays. […] Data are means ± SEM of three independent assays. Statistical significance between two groups was determined with two-tailed Student’s t test. Statistical significance among groups was determined by one-way ANOVA test.
Data are means ± SEM, n = 8. d, EGFR and its signaling proteins in xenograft tumors from NCI-H1975 inoculated mice were detected by IB. e, Stem cell markers in xenograft tumors from NCI-H1975 inoculated mice mice were detected by IB. f, Expressions of TRIB3 and EGFR were detected by IB in tumor samples from PDX mice. g, NCI-H1975 cells were treated with 5 µM of the indicated peptides or 0.5 µM AZD9291for 24 hr. The expression of indicated proteins was detected with IB. h, NCI-H1975 cells were treated with 5 µM of the indicated peptides for 24 hr. The expression of several receptor tyrosine kinases was detected with IB. i, NCI-H1975 cells were pretreated with 5 µM of the indicated peptides for 12 hr. […] The indicated proteins were detected by IB. […] Statistical significance between two groups was determined by two-tailed Student’s t-test; Statistical significance among groups was determined by one-way ANOVA test. […]
analysis. Signals were detected by Tanon 5200 chemiluminescent imaging system (Tanon, […]

NCI-H1975 cells [3] = assay: NCI-H1975 subcutaneous xenograft (tumor growth, tumor weight, metastasis); assay type: in vivo, BALB/c nude mice; conditions: dose not given
proteinase K = assay: Metabolic stability of peptide: proteinase K resistance; assay type: in vitro ADME; conditions: panel Fig.S6e
Description: Metabolic stability of peptide
The sample solution consisted of 15 µl peptide solution (1 mM ) and 585 µl Tris-HCl (pH = 7.4) buffer. Pepsin solution (4,500 U ml-1, 8 µl) or proteinase K solution (4 ng ml-1, 8 µl) was added to the sample solution and incubated at 25℃ for indicated times. Peptide concentrations were […]
detected by Exactive™ Plus Orbitrap (Thermo Fisher Scientific, USA). […]

[4] = test system: cell surface EGFR in A549 cells; assay: Cell surface EGFR by flow cytometry, A549; assay type: cell-based, human
Description: Fig. 2 TRIB3 promotes EGFR recycling to enhance its stability and signaling activity. a Control or TRIB3-silenced A549 cells were treated with cycloheximide (CHX) (10 µg ml^−1) at indicated intervals and protein stability of EGFR was analyzed by IB. Data are means ± SEM of four independent assays. b A549 cells stably expressed control-shRNA or TRIB3-shRNA plasmid were stimulated with or without EGF (100 ng ml^−1) for 1 h. Indicated proteins were analyzed by IB analysis. Data represent means ± SEM of three independent assays. c Confocal microscopy images show the distribution of EGFR and early endosome antigen 1 (EEA-1) in control or TRIB3-silenced A549 cells before and after 0.5 or 1 h of EGF (100 ng ml^−1) stimulation. Quantification of EGFR and EEA-1 colocalization was shown as Pearson’s coefficient. Data are means ± SEM of three independent assays. d Quantitative analyses of cell surface EGFR in A549 cells stably expressed control-shRNA or TRIB3-shRNA1. Cells were preincubated with DMSO or 10 μM monensin for 4 h, and then treated with or without EGF (100 ng ml^−1) for another 1 h. The Mean Fluorescence Intensity (MFI) of EGFR on cell surface was detected by flow cytometry analysis. Top: representative flow cytometry data. Bottom: the data were normalized to A549/control-shRNA cells without EGF stimulation, which was considered as 100% MFI signal. Data are means ± SEM of three independent assays. e EGFR recycling was detected in A549 cells stably expressed control-shRNA or TRIB3-shRNA1 plasmid. Data are means ± SEM of three independent assays. f Colocalization analysis of EGFR with Rab11 and LAMP-1 before or after 30 min EGF treatment in control and TRIB3-silenced A549 cells. Quantification of EGFR/Rab11 or EGFR/LAMP-1 colocalization was shown as Pearson’s coefficient. Data represent means ± SEM of three independent assays. Statistical significance between two groups was determined with two-tailed Student’s t test. Statistical significance among groups was determined by one-way ANOVA test. Source data are provided as a Source Data file. […]
Live cells were stained with Alexa-Fluro 488 anti-EGFR antibody (Santa Cruz, R-1, #sc-101
AF488, 1:100). Analysis was performed using a PARTEC EPICSXL (Germany) and data was
analyzed using FCS Express 6. […]

A549 cells = assay: A549 subcutaneous xenograft (tumor growth, tumor weight, liver metastasis); assay type: in vivo, BALB/c nude mice; conditions: dose not given
Excerpt: Fig. 7 Targeting EGFR stability inhibits lung cancer initiation and progression. a A549 tumor growth curves under different treatment. b Quantitative analysis of metastatic nodule numbers from mice as described in a. c NCI-H1975 tumor growth curves under different treatment. d Quantitative analysis of metastatic nodule numbers from mice as described in c. Data in a–d are presented as means ± SEM, n = 8. e The EGFR–TRIB3 or EGFR–PKCα interaction in xenograft tumors from indicated mice were detected with CO-IP assays. […] Statistical difference was determined by two-sided log-rank test, n = 14. i Survival curves for mice orthotopically lung implanted with NCI-H1975 cells under indicated treatment. […] Data are means ± SEM of three independent assays. Statistical significance between two groups was determined with two-tailed Student’s t test. Statistical significance among groups was determined by one-way ANOVA test. Source data are provided as a Source Data file. […]
a, Quantified tumor weight from mice subcutaneously inoculated with A549 cells under indicated treatment after tumor inoculation. Data are means ± SEM, n = 8. b, Representative graphs of liver and immunohistochemical staining of the liver sections with anti-hMitochondria […]
IB. Data are means ± SEM of 3 independent assays. Data in d-h are representatives of 3 independent assays. Statistical significance between two groups was determined by two-tailed Student’s t-test; Statistical significance among groups was determined by one-way ANOVA test. Source data are provided as a Source Data ﬁle.
For the subcutaneous tumor model, A549 (1.0×10 5), NCI-H1975 (3.0×105) or patient-derived NSCLC cancer cells (4.0×105) were injected subcutaneously into the right flank of each mouse to establish the NSCLC xenograft model. When average tumor volume reached about 100 mm3, mice were randomized into various groups for different sets of experiments. Tumor growth was monitored twice weekly with a caliper. Tumor volume (TV) was calculated using the formula: […]

[5] = H1975 cells, treatment for 12 hr

C=CC(=O)Nc1cc(Nc2nccc(-c3cn(C)c4ccccc34)n2)c(OC)cc1N(C)CCN(C)C [AZD9291]
expression of pEGFR T654, PKCα, TRIB3 and EGFR (NCI-H1975 cells [1]; [5]): had no effect | pEGFR Y1068 (NCI-H1975 cells [1]; [5]): markedly reduced | phosphorylation and expression of HER2 (NCI-H1975 cells [1]; NCI-H1975 cells, 5 µM peptide or 0.5 µM AZD9291, 24 hr): suppressive effect on HER2 phosphorylation | expression / phosphorylation of STAT3, STAT5 (and ERK1/2) in xenograft tumor tissue [2]: upregulated the expression and phosphorylation of STAT3, STAT5, and ERK1/2 | expression of EGFR and TRIB3 in xenograft tumor tissue [2]: reduced TRIB3 and EGFR expression | Tumor Weight (NCI-H1975 cells [3]; animal 1): 0.09 g | Tumor Weight (NCI-H1975 cells [3]; animal 2): 0.11 g | Tumor Weight (NCI-H1975 cells [3]; animal 3): 0.04 g | Tumor Weight (NCI-H1975 cells [3]; animal 4): 0.05 g | Tumor Weight (NCI-H1975 cells [3]; animal 5): 0.07 g | Tumor Weight (NCI-H1975 cells [3]; animal 6): 0.08 g | Tumor Weight (NCI-H1975 cells [3]; animal 7): 0.02 g | Tumor Weight (NCI-H1975 cells [3]; animal 8): 0.08 g

CC[C@H](C)[C@H](NC(=O)[C@H](CCCNC(=N)N)NC(=O)[C@H](CC(C)C)NC(=O)[C@H](CC(C)C)NC(=O)[C@H](C)NC(=O)[C@H](CCC(N)=O)NC(=O)[C@@H](N)CC(N)=O)C(=O)N[C@@H](CC(C)C)C(=O)N[C@@H](CCCNC(=N)N)C(=O)N[C@@H](CCC(=O)O)C(=O)N[C@H](C(=O)N[C@@H](CCC(=O)O)C(=O)N[C@@H](Cc1ccccc1)C(=O)N[C@@H](CCCCN)C(=O)N[C@@H](CCCCN)C(=O)O)[C@@H](C)O [JGZ]
Fraction Intact (%) (proteinase K; time 45 min, replicate 1): 15.4158% | Fraction Intact (%) (proteinase K; time 45 min, replicate 2): 19.3884% | Fraction Intact (%) (proteinase K; time 45 min, replicate 3): 17.4109% | Fraction Intact (%) (proteinase K; time 90 min, replicate 1): 4.517% | Fraction Intact (%) (proteinase K; time 90 min, replicate 2): 5.842% | Fraction Intact (%) (proteinase K; time 90 min, replicate 3): 5.149% | Fraction Intact (%) (proteinase K; time 135 min, replicate 1): 1.978% | Fraction Intact (%) (proteinase K; time 135 min, replicate 2): 2.87% | Fraction Intact (%) (proteinase K; time 135 min, replicate 3): 2.235% | Fraction Intact (%) (proteinase K; time 180 min, replicate 1): 0.9859% | Fraction Intact (%) (proteinase K; time 180 min, replicate 2): 1.636% | Fraction Intact (%) (proteinase K; time 180 min, replicate 3): 1.16% | Fraction Intact (%) (proteinase K; time 225 min, replicate 1): 0.5923% | Fraction Intact (%) (proteinase K; time 225 min, replicate 2): 0.9865% | Fraction Intact (%) (proteinase K; time 225 min, replicate 3): 0.582% | Fraction Intact (%) (proteinase K; time 270 min, replicate 1): 0.003342% | Fraction Intact (%) (proteinase K; time 270 min, replicate 2): 0.3276% | Fraction Intact (%) (proteinase K; time 270 min, replicate 3): 0.1279% | Fraction Intact (%) (proteinase K; time 360 min, replicate 1): 0% | Fraction Intact (%) (proteinase K; time 360 min, replicate 2): 0.07064% | Fraction Intact (%) (proteinase K; time 360 min, replicate 3): 0.09951% | Fraction Intact (%) (proteinase K; time 450 min, replicate 1): 0% | Fraction Intact (%) (proteinase K; time 450 min, replicate 2): 0.04231% | Fraction Intact (%) (proteinase K; time 450 min, replicate 3): 0.01388% | Fraction Intact (%) (proteinase K; time 540 min, replicate 1): 0% | Fraction Intact (%) (proteinase K; time 540 min, replicate 2): 0.01049% | Fraction Intact (%) (proteinase K; time 540 min, replicate 3): 0.003119%

EGF: epidermal growth factor used as stimulus, 100 ng ml−1
Cell Surface EGFR(%MFI) ([4]; A549/Control-shRNA, DMSO or 10 μM monensin 4 h, then EGF 100 ng ml−1 1 h, flow cytometry, A549/control-shRNA without EGF = 100%, replicate 1): 80.5481 %MFI | Cell Surface EGFR(%MFI) ([4]; A549/Control-shRNA, same treatment, replicate 2): 86.3646 %MFI | Cell Surface EGFR(%MFI) ([4]; A549/Control-shRNA, same treatment, replicate 3): 89 %MFI | Cell Surface EGFR(%MFI) ([4]; A549/TRIB3-shRNA, DMSO or 10 μM monensin 4 h, then EGF 100 ng ml−1 1 h, flow cytometry, A549/control-shRNA without EGF = 100%, replicate 1): 27.82 %MFI | Cell Surface EGFR(%MFI) ([4]; A549/TRIB3-shRNA, same treatment, replicate 2): 26.66 %MFI | Cell Surface EGFR(%MFI) ([4]; A549/TRIB3-shRNA, same treatment, replicate 3): 25.66 %MFI

COc1cc2ncnc(Nc3ccc(F)c(Cl)c3)c2cc1OCCCN1CCOCC1 [gefitinib]
Tumor Weight (A549 cells; animal 1): 0.95 g | Tumor Weight (A549 cells; animal 2): 0.28 g | Tumor Weight (A549 cells; animal 3): 0.5 g | Tumor Weight (A549 cells; animal 4): 0.76 g | Tumor Weight (A549 cells; animal 5): 0.71 g | Tumor Weight (A549 cells; animal 6): 0.63 g | Tumor Weight (A549 cells; animal 7): 0.92 g | Tumor Weight (A549 cells; animal 8): 0.87 g | Tumor Weight (NCI-H1975 cells [3]; animal 1): 0.19 g | Tumor Weight (NCI-H1975 cells [3]; animal 2): 0.56 g | Tumor Weight (NCI-H1975 cells [3]; animal 3): 0.23 g | Tumor Weight (NCI-H1975 cells [3]; animal 4): 0.63 g | Tumor Weight (NCI-H1975 cells [3]; animal 5): 0.13 g | Tumor Weight (NCI-H1975 cells [3]; animal 6): 0.48 g | Tumor Weight (NCI-H1975 cells [3]; animal 7): 0.33 g | Tumor Weight (NCI-H1975 cells [3]; animal 8): 0.37 g

— PMC7374170, “TRIB3-EGFR interaction promotes lung cancer progression and defines a therapeutic target” (Nature Communications, 2020)
